The subject of data set [1] is Malassezia furfur (ATCC 14521). Kind of data set: Minimum inhibitory concentration (MIC) against Malassezia furfur in mDixon agar. It is filed as cell-based. To be noted: for MIC: Malassezia furfur, lowest tested dilution with no visible growth, 30° for 5 days. As for the experimental part: Antifungal activity is assessed microbiologically by a method as described below^1.
^1. The Minimum Inhibitory Concentration is indicative of anti-fungal efficacy. Generally, the lower the value of the composition, the better its anti-fungal efficacy, due to increased inherent ability of the anti-dandruff agent to inhibit the growth of microorganisms.
Dilutions of solubilized anti-microbial active were then added to test tubes containing molten mDixon agar. M. furfur inoculum was added to each tube of molten agar, the tube vortexed, and the contents poured into separate sterile petri dishes. […] The lowest tested dilution of anti-microbial active that yields no growth is defined as the Minimal Inhibitory Concentration (MIC).
1) Malassezia furfur was grown in a 250 ml Erlenmeyer flask containing 100 ml “mDIXON” medium at 320 rpm and 30° C. until turbid.
2) Selected dilutions were prepared using an appropriate dilution series, of the anti-microbial active or combination in solvent, which allowed the sample active to be solubilized prior to addition to the final test agar.
3) 0.25 ml dilutions of anti-microbial active were added to test tubes containing 9.5 ml molten “mDIXON” agar (held at 45° C. in a water bath).
4) 0.25 M. furfur inoculum (adjusted to 5×10^5 cfu/ml by direct count) was added to each test tube of molten agar.
5) Each tube was vortexed, and the contents poured into separate petri dishes.
6) After the agar solidified, the plates inverted and incubated at 30° for 5 days.
7) The plates were then observed for visible M. furfur growth.
Anti-fungal activity of materials having zinc ionophoric behavior was screened by measurement of minimum inhibitory concentrations (MIC's) against Malassezia furfur.

Data set [2] relates to human umbilical vein endothelial cells. The data set can be described thus: Rate of zinc transport into model cells (intracellular zinc, Fura-2 fluorescence). It is filed as cell-based. To be noted: 1 mM ZPT (0.32 ppm) and an equal weight proportion of zinc salt. On the procedure:
Measurement of the free zinc levels in cells as a function of time is a direct measure of delivery of zinc across the cell wall/membrane. There are many methods available for assessing this process, many are based on use of intracellular fluorescent dyes. An exemplary method is similar to that reported by Turan et al. (Turan, […]. Am. J. Physiol. 1997, 272, […]-[…]). In this case, […] used, although the procedure is general and can be used with all eukaryotic cells. […] Cells are plated onto a glass cover slip. These immobilized cells are then exposed to a zinc-responsive fluorescent dye such as Fura-2 (Molecular Probes, Inc.) to load the cells with this cell-permeant fluorophore. The cells are then washed to remove dye that is not intracellular. Upon exposure to test treatments, fluorescence is measured as a function of time; in the case of Fura-2, the ratio of fluorescence intensities at 505 nm is taken in response to excitation at 340 and 380 nm. The fluorescence is conveniently measured by using an epifluorescence inverted microscope interfaced to a spectrofluorometer. Fluorescence intensity is proportional to the detected zinc level. […] TPEN) to assure the measured fluorescent response is due to zinc and not an artifact of calcium transport. In the present invention, the method as described herein may be used to identify materials with zinc ionophoric behavior.

Data set [3] is described as follows: Zinc availability test with metallochromic dye zincon (colour change orange to blue). It counts as physicochemical. As to conditions: ~30 mg/10 ml water, pH 7-11, zincon in ethanol. From the text: Zinc-containing materials (ZCMs) differ with respect to how strongly the zinc ion (Zn^2+) is held by counterions in the crystal lattice. The benefits discussed herein depend upon having available Zn^2+. […] The response is a binary visual assessment of whether or not the color changes indicating zinc-binding.
The method is based on the commercial metallochromic dye zincon. Zincon changes from an orange color to blue upon binding zinc and provides the basis for detecting available Zn^2+: [drawing 20]
The specific procedure involves making a stock solution of zincon in ethanol (˜50 mg/10 ml ethanol). The ZCM is then added to water (˜30 mg/10 ml water) and agitated (pH range should be 7-11). Three to four drops of zincon solution are then added to the ZCM in water, agitated and a visual assessment of color change made.

Setting [4] is: ATCC14521, 120 h, read-out: MIC.
Where [5] appears, read: to inhibit M. furfur growth, zinc salt alone (MIC) or together with the stated amount of ZPT.

Where two headings read alike, the source gives them in different places.

This is an account of results in patent US20040058855A1, “Use of materials having zinc ionophoric behavior” (priority 2002, published 2004).

As for `Oc1c(Br)cc(Br)c2cccnc12` [5,7-D-Br-8-HQ, 5-7-Bibromo-8-hydroxyquinoline], the MIC in data set [1] (setting [4]) was 25 µg/mL. `CNc1ccc2oc(C[C@H]3O[C@@]4(CC[C@H]3C)O[C@H]([C@H](C)C(=O)c3ccc[nH]3)[C@H](C)C[C@H]4C)nc2c1C(=O)O` [A23187, Calcimycin]: the MIC in data set [1] (setting [4]) was greater than 13 µg/mL.

As for `Oc1c(I)cc(I)c2cccnc12` [Diodoquin, 5,7-Diiodo-8-hydroxyquinoline], in data set [1] (setting [4]), the MIC turned out to be 25 µg/mL. Take `Oc1c(I)cc(Cl)c2cccnc12` [Enterovioform, 5-Cl, 7-I-8-hydroxyquinoline]: in data set [1] (setting [4]), the MIC amounted to 25 µg/mL.

As for `Cc1ccc2c(Cl)cc(Cl)c(O)c2n1` [Sterosan, 2-Me, 5,7-Dichloro-8-hydroxyquinoline], in data set [1] (setting [4]), the MIC is 100 µg/mL. The same measure, in the same setting: to `CCCCN(CCCC)C(=S)SSC(=S)N(CCCC)CCCC` [TBTDS, Tetra-n-butyl thiuram Disulfide] belongs greater than 1000 µg/mL. As to `[O-]n1ccccc1=S.[O-]n1ccccc1=S.[Zn+2]` [ZPT, zinc salt of 1-hydroxy-2-pyridinethione], the “Rate of Zinc Transport” value in data set [2] was 4 min⁻¹. Besides, in data set [1] (setting [5]), the “Antifungal activity of ZPT: Amount of zinc salt required” value worked out at 0 ppm. In data set [1] (to inhibit M. furfur growth, 100% ZPT is equivalent to 8 ppm (MIC of ZPT alone)), the “Antifungal activity of ZPT: Amount of ZPT Required (%)” value turned out to be 100%. As for `[O]=[Zn]` [ZnO, zinc oxide], in data set [3], the “available Zn^2+ (zincon colour change, binary visual assessment)” value was “have available zinc”. Also, the “Rate of Zinc Transport” value in data set [2] is reported as “˜0 min^−1”. Further, the “Antifungal activity of ZPT: Amount of zinc salt required” value in data set [1] (setting [5]) turned out to be 500 ppm. As to `O=S(=O)([O-])[O-].[Zn+2]` [ZnSO4, zinc sulfate], the “available Zn^2+ (zincon colour change, binary visual assessment)” value in data set [3] is given as “have available zinc”. Further, the “Rate of Zinc Transport” value in data set [2] is on record as “˜0 min^−1”. Besides, the “Antifungal activity of ZPT: Amount of zinc salt required” value in data set [1] is recorded as 5000 ppm.

As for `O=C([O-])CN(CCN(CC(=O)[O-])CC(=O)[O-])CC(=O)[O-].[Na+].[Na+].[Zn+2]` [zinc EDTA], in data set [3], the “available Zn^2+ (zincon colour change, binary visual assessment)” value is reported as “not having available Zn^2+”. As to `CC(=O)[O-].CC(=O)[O-].[Zn+2]` [zinc acetate], the “available Zn^2+ (zincon colour change, binary visual assessment)” value in data set [3] was “have available zinc”. With `N=C(N)NCCC[C@H](N)C(=O)O.[Zn]` [zinc arginine], in data set [3], the “available Zn^2+ (zincon colour change, binary visual assessment)” value was “have available zinc”. Still for that read-out and setting: to `[Cl-].[Cl-].[Zn+2]` [zinc chloride] belongs “have available zinc”; to `O=C([O-])CC(O)(CC(=O)[O-])C(=O)[O-].O=C([O-])CC(O)(CC(=O)[O-])C(=O)[O-].[Zn+2].[Zn+2].[Zn+2]` [zinc citrate], “have available zinc”. Same read-out and setting: to `[OH-].[OH-].[Zn+2]` [zinc hydroxide] belongs “have available zinc”. For `CC(O)C(=O)[O-].CC(O)C(=O)[O-].[Zn+2]` (centres unmarked) [zinc lactate], in data set [3], the “available Zn^2+ (zincon colour change, binary visual assessment)” value is listed as “have available zinc”. Still for that read-out and setting: to `OCC(O)CO.[Zn]` [zinc monoglycerolate] belongs “have available zinc”; to `O=C([O-])C(=O)[O-].[Zn+2]` [zinc oxalate], “have available zinc”. Lasalocid: the MIC in data set [1] was greater than 1000 ppm. In the case of zinc hexaborate, the “available Zn^2+ (zincon colour change, binary visual assessment)” value in data set [3] is “have available zinc”.

Regarding zinc histadine, the “available Zn^2+ (zincon colour change, binary visual assessment)” value in data set [3] is on record as “have available zinc”. Still for that read-out and setting: to zinc phytate belongs “not having available Zn^2+”; to zinc stearate, “have available zinc”.
